According to a melting point compilation (Tetko et al.; mined from patent text by program, amines drawn as free bases though some values may be those of a salt):

Compared with `O=C1c2ccccc2C(=O)c2sc(-c3cc(Br)co3)nc21`, `O=C1NC(=O)c2c1c(-c1ccccc1Cl)cc1c2cc(CO)n1CCCBr` is lower in melting point: over 260 °C for the first, 218 to 220 °C for the second.

First: c1c(NC2CCCC2)nc(NC2CCCC2)nc1N1CCNCC1
Second: Fc1ccc(-c2cn([C@H]3CN4CCC3CC4)nn2)cc1F
The melting point of the first is higher: 142 to 148 °C for the first, 122 °C for the second.

First: CC(C)C(=O)Oc1ccc2c(c1Cl)Sc1ccccc1N2C
Second: CC(=O)Nc1ccc(OCc2nc3ccccc3s2)cc1C
The melting point of the first is lower: 147 °C for the first, 179 to 182 °C for the second.

Compared with `COc1cccc(OC)c1C(=O)NC1=NN=C(C(C)(C)C)CS1`, `C=CCNC(=O)c1cnc2c(OC)cccc2c1Cl` is lower in melting point: 175 to 177 °C for the first, 114 to 116 °C for the second.

First: Cc1nn(-c2ccc(F)cc2)cc1C(=O)N(CC(=O)O)c1ccc(OCC(C)(C)C)c(C#N)c1
Second: CC(C)(Oc1cccc(C(=O)c2ccc(Cl)cc2)c1)C(=O)O
The melting point of the first is higher: 157 °C for the first, 144 °C for the second.

Compared with `COc1cc2c(cc1OCc1ccccc1)C=C(C(=O)O)CCC2`, `COc1ccccc1N1CCN(CCNc2ccccc2OC(F)(F)F)CC1` is lower in melting point: 172 to 173 °C for the first, 69.5 to 71 °C for the second.

Compared with `CCN(CCF)CCN1C(=O)c2ccccc2C1=O`, `CCOc1ccccc1OCC(O)CNCCNc1cnn(C)c(=O)c1Cl` (stereo not given) is higher in melting point: 57 to 59 °C for the first, 120 °C for the second.

First: COc1ccc(S(=O)(=O)N(Cc2ccccc2)c2c(C(=O)O)cnc3c2c(C)nn3-c2ccccc2)cc1
Second: CN(C)CCOc1ccc(/C(=C(\c2ccccc2)C(F)(F)F)c2ccccc2)cc1
The melting point of the first is higher: 207 to 210 °C for the first, 90 to 91 °C for the second.

Compared with `CC1=C(C(=O)OCC2COc3ccccc3O2)C(c2c(F)c(F)c(F)c(F)c2F)C2=C(CNCC2=O)N1` (stereo not given), `COCn1c(C)nc2c3c(c(C(=O)N(C)C)cc21)CCC(c1ccccc1)O3` (stereo not given) is higher in melting point: 167 to 170 °C for the first, 213 to 215 °C for the second.

First: CCOC(=O)c1ccc(CN2CCN(C(=O)OC(C)(C)C)C(C(N)=O)C2)c(C(F)(F)F)c1 (stereo not given)
Second: CC(C)(C)OC(=O)NC(=N)c1ccc(C(=O)O)cc1
The melting point of the first is lower: 124 to 125 °C for the first, over 200 °C for the second.

First: CC[C@H](C)[C@H](NC(=O)[C@H](C)N(C(=O)OC(C)(C)C)C1CCCCC1)C(=O)N[C@@H](Cc1ccc(C(C)(C)C)cc1)[C@@H](O)[C@@H](O)CC(C)C
Second: CCOC(=O)C1CCCCC1(c1ccc(O)c(C(C)(C)C)c1)c1ccc(O)c(C(C)(C)C)c1 (stereo not given)
The melting point of the first is higher: 171 to 172 °C for the first, 86 °C for the second.

First: CC[C@H](C)CCCCc1cnc(-c2ccc(OC(C)C)cc2)nc1
Second: COC(=O)c1ccc(CCc2ccc(OC)cc2)nc1
The melting point of the first is lower: 47.2 to 47.7 °C for the first, 82 °C for the second.

First: CNC(=O)Cc1c(F)cccc1F
Second: CCCc1cc(F)c(C(=O)O)cc1O
The melting point of the first is higher: 163 to 164 °C for the first, 134 to 136 °C for the second.

First: CN1C(=O)C(C)(C)N=C(c2ccccc2F)c2cc(NC(=O)OCc3ccccc3)cc(Cl)c21
Second: O=C(NC1c2ccccc2-c2[nH]c(=O)c3nccn3c21)c1ccccc1 (stereo not given)
The melting point of the first is lower: 125 to 127 °C for the first, 300 °C for the second.

`O=C(O)COc1c(Br)cc(-c2c3ccccc3c(Br)c3oc4ccccc4c23)cc1Br` and `CCOC(=O)c1cc(Br)cc2c(=O)cc(-c3cccc(OCc4nc5ccccc5s4)c3)oc12` cannot be ordered by melting point: 250 to 252 °C for the first, 250 to 251 °C for the second.

First: CN1CC(C(=O)COC(=O)c2cncc(Br)c2)CC2c3cccc4[nH]cc(c34)CC21 (stereo not given)
Second: CCCN1CC(C)CC2c3cccc4[nH]c(SC)c(c34)CC21 (stereo not given)
The melting point of the first is lower: 185 to 187 °C for the first, 216 to 219 °C for the second.

First: O=C(c1ccccc1)C(O)C1OC(n2ccc(=O)[nH]c2=O)C(O)(C(=O)c2ccccc2)C1(O)C(=O)c1ccccc1 (stereo not given)
Second: COC(=O)c1cccc(S(=O)(=O)Cc2c(O[C@H](Cn3ccnc3)c3ccccc3)ccc3c2CCCC3=O)c1
The melting point of the first is higher: 119 to 120 °C for the first, 85 °C for the second.

Compared with `CCN(C(=O)n1oc(C)c(Cl)c1=O)c1ccc(Cl)cc1Cl`, `CC(=O)N1CC(=O)NC(=O)N1Cc1ccc(Cl)cc1` is lower in melting point: 101 to 102 °C for the first, 97 °C for the second.

First: CN(C(=O)Oc1ccc(Cl)c(C(C)(C)C)c1)c1cccc(Cl)c1
Second: CC(C)(C)c1ccc(Sc2ccc(Br)cc2)cc1
The melting point of the first is higher: 65 to 67 °C for the first, 39 to 46 °C for the second.

First: CCOC(=O)C(=O)Nc1ccccn1
Second: Cc1ccccc1COCn1cc(Cl)cnc1=O
The melting point of the first is lower: 73 to 75 °C for the first, 88 °C for the second.

Compared with `CC(C=O)(CCc1c[nH]c2ccccc12)NC(=O)OC1C2CC3CC(C2)CC1C3` (stereo not given), `N#CCc1c[nH]c2ccc(CS(=O)(=O)Oc3ccccc3)cc12` is lower in melting point: 178 to 179 °C for the first, 134 to 135 °C for the second.

First: CN(CCCCCC(=O)O)c1cnc(-c2ccccc2)c(-c2ccccc2)n1
Second: O=C(CCC(=O)OC(=O)CCC(=O)OCc1ccccc1)OCc1ccccc1
The melting point of the first is higher: 159 to 160 °C for the first, 70 to 71 °C for the second.

Compared with `O=C(NC1CC1)c1[nH]c2ccc(Cl)cc2c1S(=O)(=O)c1ccccc1`, `CN(c1cccc2cc(C3=NCC(CN4CCS(=O)CC4)S3)[nH]c12)S(=O)(=O)c1ccccn1` (stereo not given) is lower in melting point: 242 to 243 °C for the first, 193 to 194 °C for the second.

Compared with `Cc1ccc(NC(=O)c2ccc(CN3CCCCC3)c(C(F)(F)F)c2)cc1-c1ccc2cnncc2c1`, `Cc1nc(-c2sc(-c3ccc(Cl)cc3)nc2C)sc1C(=O)N[C@H](C)[C@](O)(Cn1cncn1)c1ccc(F)cc1F` is lower in melting point: 175 to 177 °C for the first, 110 to 114 °C for the second.

Compared with `C=C(C)CNC(=NC#N)Nc1cccnc1`, `Cc1ccc2c(c1)nnn2CNc1ccccc1` is higher in melting point: 140 to 141 °C for the first, 149 to 152 °C for the second.

Compared with `NC(=S)Nc1c(Br)cccc1Br`, `CCc1nc2c(N)nc3ccccc3c2n1OC(C)C` is higher in melting point: 186 to 189 °C for the first, 242 to 243 °C for the second.

First: ClC1=Nc2ccccc2Sc2ncccc21
Second: CCn1ncc2c3noc(-c4cccc(Cl)c4)c3cnc21
The melting point of the first is lower: 134 to 135 °C for the first, 207 to 209 °C for the second.

First: CN(c1cccc2cc(-c3ncc(CC(=O)N4CCOCC4)s3)[nH]c12)S(=O)(=O)c1cccs1
Second: O=c1[nH]c2ccccc2n1CCCN1CCN(c2n[nH]c3ccccc23)CC1
The melting point of the first is higher: 199 to 200 °C for the first, 178 to 180 °C for the second.

First: O=C1NC(=O)c2c1c(-c1cc([N+](=O)[O-])ccc1O)cc1[nH]c3ccc(O)cc3c21
Second: COC(=O)C(=C(C)C)N1C(=O)[C@H]([C@H](C)OC(=O)OCc2ccc([N+](=O)[O-])cc2)[C@@H]1Cl
The melting point of the first is higher: over 330 °C for the first, 154 to 157 °C for the second.

First: CCCCOC(=O)c1ccc(F)nc1N
Second: CCc1nc(N)sc1-c1ccncc1
The melting point of the first is lower: 132 to 134 °C for the first, 209 to 211 °C for the second.

Compared with `O=c1[nH]cnc2c1sc(=O)n2C1OC(CO)C(O)C1O` (stereo not given), `CC1CC(=O)NN=C1c1ccc(-n2ccnc2)nc1` (stereo not given) is lower in melting point: 216 to 218 °C for the first, 140 °C for the second.

Compared with `CCCCCCCCCCCCCCCCCCOc1cc(N)cc([N+](=O)[O-])c1`, `Cc1cnc(CCCCNc2ncc(Cc3ccc(CO)nc3)c(=O)[nH]2)c(Br)c1` is higher in melting point: 106 to 108 °C for the first, 150 to 152 °C for the second.

First: C#CCn1c(-c2ccc(Cl)nc2Cl)nc(OS(=O)(=O)C(F)(F)F)c(OC)c1=O
Second: O=c1[nH]ncc2c1c(O)nc1cc(Cl)c(Cl)cc12
The melting point of the first is lower: 133 to 135 °C for the first, over 350 °C for the second.

First: CC(C)OC(=O)Cn1c(=O)n(C)c(=O)n(-c2cc(-n3c(=O)n4n(c3=S)CCCC4)c(F)cc2Cl)c1=O
Second: COCNC(=O)OC(C(Oc1ccc(-c2ccccc2)cc1)n1cncn1)C(C)(C)C (stereo not given)
The melting point of the first is higher: 136 to 142 °C for the first, 95 to 98 °C for the second.

First: COc1ccc(C=CCCl)cc1
Second: CC1(C)CC(O)CC(C)(C)N1CC(O)CN1C(C)(C)CC(O)CC1(C)C
The melting point of the first is lower: 70 to 72 °C for the first, 186 to 190 °C for the second.
